Holding throughout (format): cell-based
For assay [1], the system named is Streptococcus pyogenes IID692. Description: MIC, agar dilution method on Mueller-Hinton agar with 5% defibrinated horse blood. Particulars: 5% horse blood, 5% CO2, 35C, 24 hours. As for the experimental part: (§1) The following in vitro results were obtained based on an agar dilution method except for C. pneumoniae. The activity is presented as the minimum inhibitory concentration (MIC) S. aureus and M. catarrhalis were tested on Mueller-Hinton agar, using an approximate inoculum of 1×10^4 cfu/spot an incubation temperature of 35C for 24 hours. The MIC was defined as the lowest concentration at which no visible bacterial growth was observed.
(§2) Streptococci and enterococci were tested on Mueller-Hinton agar supplemented with 5% defibrinated horse blood, using an approximate inoculum of 1×10^4 cfu/spot an incubation temperature of 35C in an atmosphere of 5% CO2 for 24 hours. The MIC was defined as the lowest concentration at which no visible bacterial growth was observed.

Assay [2] has as its system Enterococcus faecium VRQR (vancomycin resistant, quinolone resistant). The description is as above. Particulars: 5% horse blood, 5% CO2, 35C, 24 hours. As for the experimental part:
as §1, §2

For assay [3], the system named is Streptococcus pneumoniae PRQR (penicillin resistant, quinolone resistant). The assay is described as above. Particulars: 5% horse blood, 5% CO2, 35C, 24 hours. As for the experimental part: as §1, §2
In assay [4] the test system is Streptococcus pneumoniae IID553. The description is as above. The settings on record: 5% horse blood, 5% CO2, 35C, 24 hours. As for the experimental part:
as §1, §2

The subject of assay [5] is Moraxella catarrhalis ATCC25238. Nature of the assay: MIC, agar dilution method on Mueller-Hinton agar. Particulars: 35C, 24 hours. As for the experimental part: as §1
For orientation: In agar dilution, organisms are placed on agar that contains the substance at set levels.

Assay [6] deals with Staphylococcus aureus MR (methicillin resistant). Description: MIC, agar dilution method on Mueller-Hinton agar. Particulars: 35C, 24 hours. As for the experimental part: as §1
Assay [7] has as its system Staphylococcus aureus Smith. Description: MIC, agar dilution method on Mueller-Hinton agar. Particulars: 35C, 24 hours. As for the experimental part:
as §1

In assay [8] the test system is Staphylococcus aureus CR (chloramphenicol resistant). Nature of the assay: MIC, agar dilution method on Mueller-Hinton agar. Particulars: 35C, 24 hours. As for the experimental part: as §1
For assay [9], the system named is Chlamydia pneumoniae ATCCVR-1360. Nature of the assay: MIC, chlamydial inclusion assay in infected HeLa 229 cells. The settings on record: ATCCVR1360; Chlamydia pneumoniae ATCCVR-1360 in HeLa 229 cells; 72 hours, lowest concentration with no inclusion. As for the experimental part:
C. pneumoniae was tested using minimum essential medium supplemented with 10% heat-inactivated fetal bovine serum, 2 mM L-glutamine, […] cycloheximide and non essential amino acid. HeLa 229 cells were inoculated with 10^4 inclusion-forming units of C. pneumoniae strain per mL. Infected cells were incubated with test compounds in complete medium at 35C in an atmosphere of 5% CO2 for 72 hours. […] The MIC was defined as the lowest concentration at which no inclusion was observed.

The structures appear in SMILES notation. In brackets after ≈: the same amount, converted by molar mass.

One may read the MIC as the lowest concentration found to suppress growth. Regarding `CC(=O)NC[C@H]1CN(c2ccc(N3CCOCC3)c(F)c2)C(=O)O1` [Linezolid, reference compound], the MIC in [1] was found to be 1 µg/mL (≈ 2.96 µM); in [2], 2 µg/mL (≈ 5.93 µM); in [3], 1 µg/mL (≈ 2.96 µM); in assay [4], 2 µg/mL (≈ 5.93 µM); in [5], 4 µg/mL (≈ 11.9 µM); in assay [6], 1 µg/mL (≈ 2.96 µM). For the same compound, the MIC in assay [7] worked out at 1 µg/mL (≈ 2.96 µM); in [8], 16 µg/mL (≈ 47.4 µM); in [9] it was 8 µg/mL (≈ 23.7 µM).
Consider `CC(=O)NC[C@H]1CN(c2ccc(C3(C#N)CC3)c(F)c2)C(=O)O1` [example 7, N-[5(S)-3-[4-(1-Cyanocyclopropan-1-yl)-3-fluorophenyl]-2-oxooxazolidin-5-ylmethyl]acetamide], for which the minimal inhibitory concentration (MIC) in assay [1] came out at 0.5 µg/mL (≈ 1.58 µM); in [2], 0.5 µg/mL (≈ 1.58 µM); in [3] it was 1 µg/mL (≈ 3.15 µM); in assay [4], 1 µg/mL (≈ 3.15 µM); in [5] it was 4 µg/mL (≈ 12.6 µM); in assay [6] it was 0.5 µg/mL (≈ 1.58 µM). In addition, the MIC came out at 0.5 µg/mL (≈ 1.58 µM) in assay [7], 4 µg/mL (≈ 12.6 µM) in assay [8] and 0.5 µg/mL (≈ 1.58 µM) in assay [9].
For the compound `CC(=S)NC[C@H]1CN(c2ccc(C3(C#N)CC3)c(F)c2)C(=O)O1` [example 8, N-[5(S)-3-[4-(1-Cyanocyclopropan-1-yl)-3-fluorophenyl]-2-oxooxazolidin-5-ylmethyl]thioacetamide], the minimal inhibitory concentration (MIC) in [1] was found to be 0.125 µg/mL (≈ 0.375 µM); in [2], 0.25 µg/mL (≈ 0.75 µM); in [3] it was 0.25 µg/mL (≈ 0.75 µM); in assay [4], 0.25 µg/mL (≈ 0.75 µM); in assay [5], 0.5 µg/mL (≈ 1.5 µM); in assay [6], 0.125 µg/mL (≈ 0.375 µM). Moreover, the minimal inhibitory concentration (MIC) in assay [7] is 0.125 µg/mL (≈ 0.375 µM); in [8] it was 0.5 µg/mL (≈ 1.5 µM); in assay [9], 0.25 µg/mL (≈ 0.75 µM).
`N#CC1(c2ccc(N3C[C@H](CNc4ccon4)OC3=O)cc2F)CC1` [example 18, 5(S)-3-[4-(1-Cyanocyclopropan-1-yl)-3-fluorophenyl]-5-[N-(1,2-isoxadiazolyl-3-yl)amino]methyloxazolidin-2-one]: the MIC in assay [1] was 1 µg/mL (≈ 2.92 µM); in assay [2], 1 µg/mL (≈ 2.92 µM); in assay [3], 1 µg/mL (≈ 2.92 µM); in assay [4], 1 µg/mL (≈ 2.92 µM); in [5], 8 µg/mL (≈ 23.4 µM); in assay [6], 0.5 µg/mL (≈ 1.46 µM). Further, the figures for the MIC in [7] and in assay [8] were 0.5 µg/mL (≈ 1.46 µM) and 16 µg/mL (≈ 46.7 µM), respectively.
For the compound `COC(=S)NC[C@H]1CN(c2ccc(C3(C#N)CC3)c(F)c2)C(=O)O1` [example 32, O-Methyl N-[5(S)-3-[4-(1-Cyanocyclopropan-1-yl)-3-fluorophenyl]-2-oxooxazolidin-5-ylmethyl]thiocarbonate], the MIC in assay [1] is 0.125 µg/mL (≈ 0.358 µM); in assay [2], 0.25 µg/mL (≈ 0.716 µM); in assay [3], 0.125 µg/mL (≈ 0.358 µM); in assay [4], 0.25 µg/mL (≈ 0.716 µM); in [5], 0.5 µg/mL (≈ 1.43 µM); in assay [6], 0.125 µg/mL (≈ 0.358 µM). For the same compound, the values for the minimal inhibitory concentration (MIC) in assay [7], in [8] and in assay [9] were 0.125 µg/mL (≈ 0.358 µM), 2 µg/mL (≈ 5.72 µM) and 4 µg/mL (≈ 11.4 µM), respectively.
